Measurements reported in patent publication US20130005810A1, “ORGANIC UNCOUPLING AGENTS” (RHODIA OPERATIONS, priority 2009, published 2013).

System: bacterial strain Shinella granuli
Assay: Oxitop respirometric screening test (oxygen overconsumption as signature of uncoupling, 7 days)
Assay type: cell-based
Conditions: for uncoupling percentage relative to the control: Shinella granuli, 7 days
Description: In order to evaluate the reduction in sludge production by a chemical uncoupling agent in screening, the respirometric technique of Oxitop® cylinders is used. Bacterial strains known and representative of activated sludge (since they are isolated in aeration tanks) are inoculated into a culture medium in the presence of a certain concentration of the uncoupling agent over a period of 7 days. By comparing the respiration of treated inocula comparatively with controls (untreated inocula), it is possible to measure oxygen overconsumption, a physiological signature of the uncoupling effect on bacteria.
The method and the apparatus used are those described in Example 3 of WO 2004/113236 cited as a reference.
The results obtained in a screening test on the bacterial strain Shinella granuli, are gathered in Table 1 below. They are expressed as an uncoupling percentage relative to the control (not comprising any uncoupling agent). THPS (tetrakis(hydromethyl)phosphonium sulfate) produces uncoupling effects in oxitop® respirometry tests of 16±8% for a rated concentration of 3 ppm, the 95% confidence interval of THPS in terms of uncoupling factor being, […] from results obtained in 26 Oxitop® tests.

## C[N+](C)(C)CC(=O)[O-] [Glycine betaine, glycine betaine]
0.1 ppm uncoupling agent
  uncoupling percentage relative to the control: 5%
0.5 ppm uncoupling agent
  uncoupling percentage relative to the control: 18%
1 ppm uncoupling agent
  uncoupling percentage relative to the control: 0%
2 ppm uncoupling agent
  uncoupling percentage relative to the control: 20%-26%
3 ppm uncoupling agent
  uncoupling percentage relative to the control: 24%-25%
8 ppm uncoupling agent
  uncoupling percentage relative to the control: 20%-26%
10 ppm uncoupling agent
  uncoupling percentage relative to the control: 12-20%

## OCC(CO)(CO)CO [Pentaerythritol, pentaerythritol]
0.5 ppm uncoupling agent
  uncoupling percentage relative to the control: 2%
1 ppm uncoupling agent
  uncoupling percentage relative to the control: 8%
3 ppm uncoupling agent
  uncoupling percentage relative to the control: 19%
20 ppm uncoupling agent
  uncoupling percentage relative to the control: 22%
Concentration range between 2 and 20 ppm, summary drawn from Table 1
  uncoupling factor: ~20%

## COc1cc(C=O)ccc1O [Vanillin, vanillin]
0.1 ppm uncoupling agent
  uncoupling percentage relative to the control: 5%
0.5 ppm uncoupling agent
  uncoupling percentage relative to the control: 18%
1 ppm uncoupling agent
  uncoupling percentage relative to the control: 14%
2 ppm uncoupling agent
  uncoupling percentage relative to the control: 18%-25%
3 ppm uncoupling agent
  uncoupling percentage relative to the control: 15%-22%
8 ppm uncoupling agent
  uncoupling percentage relative to the control: 21%-21%
10 ppm uncoupling agent
  uncoupling percentage relative to the control: 18%-23%
20 ppm uncoupling agent
  uncoupling percentage relative to the control: 18%
